Experimental findings from patent publication US7947709B2, “Non-nucleoside reverse transcriptase inhibitors” (Roche Palo Alto LLC, priority 2007, dated 2011) are described below.

The target of series [1] is T1, HIV-1 RT (Human immunodeficiency virus type 1 group M subtype B, UniProt P04585).
T1 construct: HIV-1 RT enzyme (final concentrations of 1-3 nM)
The experiment in a line: HIV-1 Reverse Transcriptase Assay (RNA-dependent DNA polymerase activity, SPA). The series is classed as biochemical. The procedure:
HIV-1 Reverse Transcriptase Assay
RNA-dependent DNA polymerase activity was measured using a biotinylated primer oligonucleotide and tritiated dNTP substrate. Newly synthesized DNA was quantified by capturing the biotinylated primer molecules on streptavidin coated Scintillation Proximity Assay (SPA) beads (Amersham). The sequences of the polymerase assay substrate were: 18 nt DNA primer, 5′-Biotin/GTC CCT GTT CGG GCG CCA-3′; 47 nt RNA template, 5′-GGGUCUCUCUGGUUAGACCACUCUAGCAGUGGCGCCCGAACAGGGAC-3′. The biotinylated DNA primer was obtained from the Integrated DNA Technologies Inc. and the RNA template was synthesized by Dharmacon. The DNA polymerase assay (final volume 50 μl) contained 32 nM biotinylated DNA primer, 64 nM RNA substrate, dGTP, dCTP, dTTP (each at 5 μM), 103 nM [^3H]-dATP (specific activity=[…]), in 45 mM Tris-HCl, pH 8.0, 45 mM NaCl, 2.7 mM Mg(CH3COO)2, 0.045% Triton X-100 w/v, 0.9 mM EDTA. The reations contained 5 ul of serial compound dilutions in 100% DMSO for IC50 determination and the final concentrations of DMSO were 10%. Reactions were initiated by the addition of 30 μl of the HIV-1 RT enzyme (final concentrations of 1-3 nM). Protein concentrations were adjusted to provide linear product formation for at least 30 min of incubation. After incubation at 30° C. for 30 min, the reaction was quenched by addition of 50 μl of 200 mM EDTA (pH 8.0) and 2 mg/ml SA-PVT SPA beads (Amersham, RPNQ0009, reconstituted in 20 mM Tris-HCl, pH 8.0, 100 mM EDTA and 1% BSA). The beads were left to settle overnight and the SPA signals were counted in a 96-well top counter-NXT (Packard). IC50 values were obtained by sigmoidal regression analysis using GraphPad.

Series [2] deals with HXB2-strain of HIV-1 in MT4 cells. In words: Antiviral Assay (protection of HIV-1-infected MT4 cells from cell death, MTT). The series is classed as cell-based. Conditions: Human immunodeficiency virus 1, 120 h, MT4 cells infected with HXB2-strain of HIV-1, 5 days. The procedure:
Anti-HIV-1 antiviral activity was assessed using an adaptation of the method of Pauwels et al. (Pauwels et al., J Virol Methods 1988 20:309-321). The method is based on the ability of compounds to protect HIV-1-infected T lymphoblastoid cells (MT4 cells) from cell-death mediated by the infection. The endpoint of the assay was calculated as the concentration of compound at which the cell viability of the culture was preserved by 50% (‘50% inhibitory concentration’, IC50). The cell viability of a culture was determined by the uptake of soluble, yellow 3-[4,5-dimethylthiazol-2-yl]-2,5-diphenyltetrazolium bromide (MTT) and its reduction to a purple insoluble formazan salt. After solubilization, spectrophotometric methods were employed to measure the amount of formazan product. […]
A fresh solution of 5 mg/mL MTT was prepared in 0.01 M phosphate buffered saline, pH 7.2 and 20 microliters added to each culture. […] When the formazan deposit was fully solubilized by further mixing, the absorbance (OD) of the cultures was measured at 540 nm and 690 nm wavelength (690 nm readings were used as blanks for artifacts between wells). The percent protection for each treated culture was then calculated from the equation: […]

[3] abbreviates: HIV-1 RT enzyme 1-3 nM, 30° C., 30 min, read-out: HIV-1 RT IC50.

Broadly, the melting point is the temperature, or range, at which the solid turns liquid. For orientation: IC50 means the concentration at which inhibition is half-maximal.

Read-outs that look alike come from different tables or passages of the source.

Take `N#Cc1cc(Cl)cc(Oc2c(Br)ccc(Cn3c(=O)[nH]c4c3ccc[n+]4[O-])c2F)c1` [Compound I-3]: the melting point was 259 to 260 °C. In addition, the half-maximal inhibitory concentration (IC50) in series [1] (setting [3]) came to 0.0159 µM.

With `N#Cc1cc(Cl)cc(Oc2c(Cl)ccc(Cn3c(=O)[nH]c4cnccc43)c2F)c1` [Compound I-6, 3-Chloro-5-[6-chloro-2-fluoro-3-(2-oxo-2,3-dihydro-imidazo[4,5-c]pyridin-1-ylmethyl)-phenoxy]-benzonitrile], the melting point was in the range of 232 to 233 °C. For the same compound, in series [1] (setting [3]), the IC50 is 0.007 µM.

As to `CCc1n[nH]c(=O)n1Cc1ccc(Br)c(Oc2cc(Cl)cc(C#N)c2)c1F` [Compound I-9, 3-[6-Bromo-3-(3-ethyl-5-oxo-1,5-dihydro-[1,2,4]triazol-4-ylmethyl)-2-fluoro-phenoxy]-5-chloro-benzonitrile], the melting point is 264 to 265 °C. Moreover, the IC50 in series [1] (setting [3]) turned out to be 0.0197 µM.

In the case of `N#Cc1cc(Cl)cc(Oc2c(Br)ccc(Cn3c(=O)[nH]c4ccccc43)c2F)c1` [Compound I-1, 3-[6-Bromo-2-fluoro-3-(2-oxo-2,3-dihydro-benzoimidazol-1-ylmethyl)-phenoxy]-5-chloro-benzonitrile], the melting point is 227 to 229 °C. Besides, in series [1] (setting [3]), the IC50 is 0.0122 µM.

On to `Cc1n[nH]c(=O)n1Cc1ccc(Br)c(Oc2cc(Cl)cc(C#N)c2)c1F` [Compound I-10, 3-[6-Bromo-2-fluoro-3-(3-methyl-5-oxo-1,5-dihydro-[1,2,4]triazol4-ylmethyl)-phenoxy]-5-chloro-benzonitrile], for which the melting point is 129.9 to 131 °C. For the same compound, the concentration for half-maximal inhibition (IC50) in series [1] (setting [3]) was determined as 0.0546 µM.

Take `N#Cc1cc(Cl)cc(Oc2c(Br)ccc(COC(=O)Nc3ccc(Cl)cc3Cl)c2F)c1` [Compound I-12]: the melting point was in the range of 138.3 to 139.9 °C. Also, the 50% inhibitory concentration (IC50) in series [1] (setting [3]) was found to be 0.0682 µM.

For the compound `N#Cc1cc(Cl)cc(Oc2c(Br)ccc(Cn3c(=O)[nH]c4nnccc43)c2F)c1` [Compound I-7, 3-[6-Bromo-2-fluoro-3-(6-oxo-6,7-dihydro-imidazo[4,5-c]pyridazin-5-ylmethyl)-phenoxy]-5-chloro-benzonitrile], the IC50 in series [1] (setting [3]) stood at 0.0051 µM.

In turn, `N#Cc1cc(Cl)cc(Oc2c(Br)ccc(Cn3c(=O)[nH]c4cnccc43)c2F)c1` [Compound I-4, 3-[6-Bromo-2-fluoro-3-(2-oxo-2,3-dihydro-imidazo[4,5-c]pyridin-1-ylmethyl)-phenoxy]-5-chloro-benzonitrile] yielded a melting point of 219 to 221.5 °C. The same compound gave an IC50 in series [2] of 0.0004 µM. This compound yielded a 50% inhibitory concentration (IC50) in series [1] of 0.005 µM.

The compound `N#Cc1cc(Cl)cc(Oc2c(Br)ccc(CNC(=O)Nc3ccccc3F)c2F)c1` [Compound I-11] returned a melting point of 215.5 to 215.8 °C. Further, in series [1] (setting [3]), the half-inhibitory concentration (IC50) turned out to be 0.0331 µM.

The compound `N#Cc1cc(Cl)cc(Oc2c(Br)ccc(Cn3c(=O)[nH]c4ncccc43)c2F)c1` [Compound I-2, 3-[6-Bromo-2-fluoro-3-(2-oxo-2,3-dihydro-imidazo[4,5-b]pyridin-1-ylmethyl)-phenoxy]-5-chloro-benzonitrile] showed a melting point of 255.5 to 258.5 °C. Moreover, in series [1] (setting [3]), the IC50 amounted to 0.0058 µM.

`N#Cc1cc(Cl)cc(Oc2c(Br)ccc(Cn3c(=O)[nH]c4c[n+]([O-])ccc43)c2F)c1` [Compound I-5] gave a melting point of 226.8 to 229 °C. Moreover, the IC50 in series [1] (setting [3]) was determined as 0.492 µM.

For `N#Cc1cc(Cl)cc(Oc2c(Br)ccc(Cn3cn[nH]c3=O)c2F)c1` [Compound I-8, 3-[6-Bromo-2-fluoro-3-(5-oxo-1,5-dihydro-[1,2,4]triazol-4-ylmethyl)-phenoxy]-5-chloro-benzonitrile], the melting point worked out at 107 °C. The IC50 in series [1] (setting [3]) came out at 0.0451 µM.
